row,Structure (SMILES),melting point [°C]
1,CCC(C)C(NC(=O)OCc1ccccc1)C(=O)NC(Cc1c[nH]c2ccccc12)C(=O)OC (configuration not stated),152 to 155
2,N#Cc1ccc(N2CCC(CCO)C2)c2ccsc12 (configuration not stated),109 to 111
3,CC(=O)Nc1ccccc1S(=O)(=O)NCCN1[C@H](C)Cc2ccsc2[C@@H]1C (relative stereo),104 to 109
4,Oc1ccc(F)c(O)c1F,100 to 101
5,OC(c1ccccc1)(c1ccccc1)c1ccncc1,238 to 240
6,CS(=O)(=O)c1ccc(Cl)c(C(=O)Nc2ccc(-n3nc(C4CC4)cc3C3CC3)cc2)c1,60 to 65
7,CC/C(=C\C=C\C(=O)Oc1ccc([N+](=O)[O-])cc1)c1ccc(OC)cc1,112 to 114
8,Cc1ccc(Nc2c(C)cc(Cl)cc2Cl)c(CC(=O)N(C)C)c1,119 to 124
9,CCCCc1cc(=O)oc2cc(O)cc(O)c12,236 to 237
10,CNC(=S)NCCCCc1nc[nH]c1Br,153 to 155
11,Nc1sc2c(c1C(=O)c1ccco1)CCC2,149 to 153
12,CC(C)(C)c1ccc(CCC2CO2)cc1NC(=O)CC1c2ccccc2Oc2ccccc21 (configuration not stated),156 to 157
13,O=C1C(=O)c2ccccc2C2=C1SCC1(CCN(CCCCc3ccccc3)CC1)O2,145 to 147
14,C=Cc1c(N)nc(-c2ccc(Cl)c(OC)c2F)nc1C(=O)O,167 to 168
15,COc1cccc(OC)c1-c1cc(C(=O)NC2(C(=O)O)C3CC4CC(C3)CC2C4)nn1-c1ccc(C(=O)NC2CC(C)(C)NC(C)(C)C2)cc1C(C)C (configuration not stated),270 to 272
16,CNC(=O)CC1CN=C(c2cc3cc(Oc4ccc(S(C)(=O)=O)cn4)cc(OC(C)C)c3[nH]2)S1 (configuration not stated),190 to 192
17,CC(C)(C)c1ccc(Oc2ccc([N+](=O)[O-])cc2C(=O)Nc2ccccc2)cc1,138 to 140
18,CCCCCCCCCCOc1ccc(C(=O)C=O)cc1,81 to 83
19,CCOC(=O)C(=O)CC(=O)c1cn(Cc2ccc(F)cc2)c2ccc(F)cc2c1=O,152 to 153
20,O=C1c2c(Br)cccc2S(=O)(=O)N1CSc1ccccc1,174 to 178
21,COc1ccc(Cn2c(C(C)C)c(C(=O)c3cccnc3)c3ccccc32)cc1,190
22,Cc1cccc(C(=O)Cc2ccnc(NC(=O)OC(C)(C)C)c2)c1,144 to 146
23,CCN(CC)c1cc(C)c2ncc(C#N)c(O)c2c1,> 250
24,COC(=O)c1ccccc1OCCOc1cccc2ccccc12,132 to 137

row,Structure (SMILES),melting point [°C]
1,OCc1cn(-c2ccc(Cl)cc2)cn1,115 to 116
2,CC(=O)c1ccc(N=C(C)c2ccccc2)cc1,205
3,CC(CCCCN(C)c1ccccc1)NCC(O)c1ccc(O)c(C(N)=O)c1 (configuration not stated),157 to 160
4,COC(=O)C1=CC=C(/C=C/c2ccc(OC)cc2)C2=CC(C(C)C)=CC=C(C)C2=C1C(=O)OC,161 to 162
5,COc1ccc(NC(=O)N(O)C2CCCCCCC2)cc1,166 to 167
6,CN(C(=O)Nc1c(F)cc(F)cc1CCc1cc(C(C)(C)C)c(O)c(C(C)(C)C)c1)C1CCN(Cc2ccccc2)CC1,187 to 191
7,NCC(O)COc1cccc(CN2CCCCC2)c1 (configuration not stated),74 to 76.5
8,CC[N+](CC)(CC)C1CC(=O)N1C(C(=O)OCc1ccc([N+](=O)[O-])cc1)=C([O-])CCOC(=O)c1ccccc1 (configuration not stated),133 to 134
9,CC(C)N=C(NC(C)C)ON1C(C)(C)CC(O)CC1(C)C,118 to 123
10,O=CNCC1CN(c2c(F)cc3c(=O)c(C(=O)O)cn(C4CC4)c3c2F)CCO1 (configuration not stated),210 to 213
11,Cc1sc2c(c1C)C(c1ccc(Cl)cc1)=NC(CC(=O)O)c1nnc(C)n1-2 (configuration not stated),166 to 177
12,COc1ccc(C(=O)Nc2ccc(CCc3ccc(O)c(O)c3)cc2)c(O)c1,179 to 180
13,CN(C)C(C)(O)CC12CCC(c3ccccc31)c1ccccc12 (configuration not stated),118 to 121
14,CCOC(=O)C1=C(C)NC2=C(C(=O)OC2)C1c1ccccc1OC (configuration not stated),219 to 220
15,CN1C(=O)C[C@@H](c2ccccc2)[C@H]1CO,93 to 95
16,Cc1oc(C=Cc2ccccc2)nc1CCl,108 to 109
17,Cc1ccc(NC(=O)c2ccc(N)c([N+](=O)[O-])c2)cc1C,192 to 195
18,Cc1nc(-n2cnn(CC3CC3)c2=O)sc1C(=O)NCc1cccnc1,116 to 117
19,C=CCn1nc(-c2ccc(OC)cc2)c(-c2ccc(OC)cc2)cc1=O,114 to 115
20,O=c1cc2c3cccnc3sn2c2ccccc12,> 350
21,CC1(C)C(=O)N(Cc2ccccc2Cl)OC1Nc1ccccc1 (configuration not stated),99 to 101
22,CC1(C)NC(=O)N(c2cc(C#N)c(C#N)c(C(F)(F)F)c2)C1=O,159 to 160
23,CC(=O)C1=C(O)C(=C(C)Nc2ccc(NC(N)=O)cc2)C(=O)OC1=O,250 to 253
24,CCCc1cc(O)nc(NCC)n1,108 to 110

row,Structure (SMILES),melting point [°C]
1,CCc1nc(C(=O)c2c(C)cc(C)cc2C)c(C=O)n1C(CC)CC,119 to 120
2,CCOCCCOc1ccc(-c2ccc3c(c2)C=C(C(=O)OC)CCN3C(=O)OC(C)(C)C)cc1,125 to 128
3,CC(C)(C)OC(=O)[C@@H]1CNC(=O)N1C(=O)OCc1ccccc1,138 to 139
4,O=C1CNN(c2cc(Cl)c(C(C(=O)O)c3ccc(Cl)cc3)c(Cl)c2)C(=O)N1 (configuration not stated),194
5,Cc1nc2ccsc2c2ccccc12,74 to 76
6,COc1c(C2CCN(CCCCNC(=O)c3ccc(-c4ccc(Cl)cc4)cn3)CC2)ccc2c1CCCC2,103 to 105
7,CC1(C)Oc2ccc(S(=O)(=O)C(F)(F)F)cc2[C@@H](N2Cc3c(cccc3[N+](=O)[O-])C2=O)[C@@H]1O (relative stereo),292 to 295
8,O=C1CC(c2cccc(OCc3ccccc3)c2)=Nc2ccc(N3CCOCC3)cc21,283 to 285
9,Cc1cccc(CN2NCC(=O)NC2=O)c1,158
10,Clc1cccc(-c2ccc(Cl)nn2)c1,155 to 157
11,CCN(CC)CCCCC1CCN(CCNC(=O)N2c3ccccc3C(=O)Nc3cccnc32)CC1,167
12,Ic1cccc2c1CCOC2,54 to 56
13,COc1cc(O)c2c(=O)c(OC)c(-c3ccc(OCc4ccccc4)c(OC)c3)oc2c1,156 to 157
14,O=C(O)CCCCCc1c[nH]c2ccccc12,124 to 126
15,O=C(Nc1ccc(C(O)(C(F)(F)F)C(F)(F)F)cc1)Oc1ccccc1,192 to 194
16,O=C(O)CN1C(=O)C(=Cc2ccc3ccccc3c2)SC1=S,257 to 264
17,O=C1C2=C(CCCC2)C(=O)N1c1ccc(F)cc1F,73 to 74
18,CC(C)c1nn(-c2ccc(C(F)(F)F)cc2)cc1CCCOc1ccccc1CC(=O)O,89 to 90
19,Cc1cccc(C)c1N1C(=O)c2ccc(C(=O)O)cc2C1=O,210 to 213
20,CC(=O)Nc1cccc(OCc2ccccc2)c1C,142 to 143
21,CCOC(=O)c1cnn(-c2ccccn2)c1C#N,112 to 114
22,COC(=O)c1ccc(Oc2cc3c(cc2Br)C(C)(C)CCC3(C)C)cc1,135 to 136
23,CCC(=O)OCc1nc(-c2ccc(OC)c(OC)c2)c2cc(OC)c(OC)cc2c1CC,125 to 127
24,CCC(=O)CNC(=O)CSc1cnc(NC(C)=O)s1,195 to 196

# Reference: a melting point compilation (Tetko et al.; mined from patent text by program, amines drawn as free bases though some values may be those of a salt)
